Data as given in patent US10294290B2, “Polypeptides derived from calcitonin receptors and methods of use” (The Research Foundation For The State University of New York, priority 2010, dated 2019).
[ ]: non-standard residue; d: D form. pGlu = O=C1CC[C@@H](C(=O)O)N1

Assays:
[1] = test system: immortalized human fetal osteoblast cell line, hFOB 1.19; test: Bone matrix formation, Alizarin Red staining, differentiated osteoblasts; type: cell-based; conditions: for calcium deposits (Alizarin dye, fluorescent images): 12.5 μM
Description: The effect of CRP on differentiated osteoblasts was analyzed in an immortalized human fetal osteoblast cell line, hFOB 1.19. hFOB cells were incubated for 48 hours in increasing concentrations of CRP (4.6 μM, 9.2 μM, 13.8 μM and 18.4 μM). Bone matrix formation was assayed using a Millipore Osteogenesis Quantitation kit as described above. Phase contrast and fluorescent images of the Alizarin Red stained cells were acquired using an Olympus-IMT microscope according to the manufacturer's (Millipore) specifications. […] Increased bone matrix deposition was also detectable by fluorescence microscopy. Non-amidated CRP had no effect on bone matrix formation.
The sequence specificity of the effect of CRP on bone matrix formation was evaluated using the scrambled peptide, {pGln}NFWQWWIQARKQ (SEQ ID NO:51), which was amidated at the C-terminus. hFOB cells were treated as described above with 18.4 μM of the scrambled peptide, and bone matrix formation was assayed with the Millipore Osteogenesis Quantitation kit as described above.
In cell culture, we also studied the effect of amino acid substitutions in CRP on the formation of bone matrix. hFOB cells were treated with human CRP (KRQWAQFKIQWNQR; SEQ ID NO:42) and, separately, mouse CRP (KRQWTQFKIQWSQR; SEQ ID NO:43) before staining with Alizarin dye to identify the matrix that is formed. Fluorescent images were acquired using an Olympus-IMP microsope.

[2] = test system: ovariectomized (OVX) rats; test: Micro-CT of cortical bone from femoral midshafts; type: in vivo, Sprague Dawley rats; conditions: 15 μM (1 mL) intraperitoneal, five times per week for five weeks, vs vehicle, p<0.05 ANCOVA
Description: We performed a micro-CT analysis of cortical bone from the femoral midshafts of ovariectomized (OVX) rats treated with 50% DMSO (OVX Vehicle) or 15 μM rat CRP (OVX 15 μM) Sprague Dawley rats (n=12/group) were ovariectomized at 6 months of age and allowed to lose bone for one month prior to treatment. They were then administered vehicle or 15 μM CRP (1 mL), via intraperitoneal injection, five times per week for five weeks. The animals were then sacrificed and their femora were harvested. The femora were scanned using microCT (Scanco uCT40) and 1.8 mm-long mid-diaphyseal regions of interest were analyzed.

With “KRQWAQFKIQWNQR (listed as Homo sapiens) [hCRP]” the “calcium deposits (Alizarin dye, fluorescent images)” value [1] was “produced calcium deposits”.

“KRQWTQFKIQWSQR (listed as Mus sp.) [mCRP]” was tested, and the “calcium deposits (Alizarin dye, fluorescent images)” value [1] was “produced calcium deposits”.

For “rat CRP: rat calcitonin receptor-derived polypeptide (rat homologue, SEQ ID NO:47, shown in FIG. 2) (KRQWAQFKIQWSHRWGRR; listed as Rattus norvegicus)”, the average periosteal surface [2] was “significantly greater”, the average periosteal volume [2] was “significantly greater” and the “average polar moment of inertia” value [2] was “significantly greater”. The “maximum principal moment of inertia” value [2] was “significantly greater” and the “minimum principal moment of inertia” value [2] was “significantly greater”.

“{pGln}NFWQWWIQARKQ ([pGlu]NFWQWWIQARKQ-NH2; SMILES CC[C@H](C)[C@H](NC(=O)[C@H](Cc1c[nH]c2ccccc12)NC(=O)[C@H](Cc1c[nH]c2ccccc12)NC(=O)[C@H](CCC(N)=O)NC(=O)[C@H](Cc1c[nH]c2ccccc12)NC(=O)[C@H](Cc1ccccc1)NC(=O)[C@H](CC(N)=O)NC(=O)[C@@H]1CCC(=O)N1)C(=O)N[C@@H](CCC(N)=O)C(=O)N[C@@H](C)C(=O)N[C@@H](CCCNC(=N)N)C(=O)N[C@@H](CCCCN)C(=O)N[C@@H](CCC(N)=O)C(N)=O) [scrambled peptide, scrambled control peptide, same amino acids as CRP in scrambled order, reference compound]” was tested, and the bone matrix formation ([1]; 18.4 μM) was “did not induce bone matrix formation”.
